{"source": "EPA's ToxValDB 9.5", "key": {"Rattus norvegicus [1]": {"tested_on": "Rattus norvegicus", "conditions": "acute, oral, gavage"}, "Oryctolagus sp.": {"tested_on": "Oryctolagus sp.", "conditions": "acute; dermal; occlusive; New Zealand"}, "Rattus norvegicus [2]": {"tested_on": "Rattus norvegicus"}, "Rattus norvegicus [3]": {"tested_on": "Rattus norvegicus", "conditions": "oral, M/F"}, "Rattus norvegicus [4]": {"tested_on": "Rattus norvegicus", "conditions": "oral"}, "[5]": {"conditions": "chronic, duration: 2 years, inhalation, M/F, no effects"}, "[6]": {"conditions": "subchronic, oral, M/F, myocardial degeneration, hepatotoxicity and nephrotoxicity"}, "[7]": {"conditions": "short-term, inhalation, M/F, degeneration of olfactory epithelium"}, "[8]": {"conditions": "short-term, duration: 14 days, oral, gavage, M, CD1, hepatic"}, "[9]": {"conditions": "subchronic, oral, gavage, M/F, hepatic lesions"}, "[10]": {"conditions": "reproduction developmental, oral, drinking water, M/F, neurodevelopmental effects"}, "[11]": {"conditions": "chronic, duration: 2 years, oral, diet, M/F, reduced body weight"}, "[12]": {"conditions": "developmental, inhalation, M/F, reduced pup weight in the f1 and f2 generations"}, "[13]": {"conditions": "chronic, duration: 2 years, oral, diet, M/F, decreased body weight gain increased plantar ulcer (females)"}, "[14]": {"conditions": "reproduction developmental, oral, M/F, reduced fertility in the F1/F2b generation + Reduced relative kidney weights in F0, F1, and F2b adults"}, "[15]": {"conditions": "short-term, duration: 28 days, M, Sprague-Dawley, Endocrine: Hyperplasia/hypertrophy of follicular epithelium of the thyroid"}, "[16]": {"conditions": "short-term, duration: 28 days, M, Sprague-Dawley, Neurological: Delayed pupillary reflex"}}, "note": "Values joined by “and” are separate entries in the source; they are usually repeats but may differ in a detail not shown here. Equal values may be shown once."}
{"smiles": "O=C(OCC1CC=CCC1)C1CC=CCC1", "note": "(centres undefined)", "values": [{"measurement": "LD50", "setting": "Rattus norvegicus [1]", "value": 2840, "unit": "mg/kg"}, {"measurement": "LD50", "setting": "Rattus norvegicus [1]; Sprague-Dawley", "value": "≥ 1360 mg/kg and ≤ 2390 mg/kg"}, {"measurement": "LD50", "setting": "Oryctolagus sp.", "value": "5010 mg/kg and ≥ 12300 mg/kg and ≤ 13400 mg/kg"}]}
{"smiles": "CC(F)F", "note": "[1,1-Difluoroethane]", "values": [{"measurement": "NOAEL", "setting": "Rattus norvegicus [2]; [5]", "value": 67500, "unit": "mg/m3"}]}
{"smiles": "CN(C)N", "note": "[1,1-Dimethylhydrazine]", "values": [{"measurement": "LOAEL", "setting": "Mus musculus; chronic, duration: 6 months, inhalation, F, C57BL/6, hepatic", "value": 0.123, "unit": "mg/m3"}]}
{"smiles": "CC(F)(F)Cl", "note": "[1-Chloro-1,1-difluoroethane]", "values": [{"measurement": "NOAEL", "setting": "Rattus norvegicus [2]; [5]", "value": 82600, "unit": "mg/m3"}]}
{"smiles": "OCC(Cl)CCl", "note": "(centres undefined) [2,3-Dichloro-1-propanol]", "values": [{"measurement": "LOAEL", "setting": "Rattus norvegicus [2]; [6]", "value": 35, "unit": "mg/kg-day"}, {"measurement": "NOAEL", "setting": "Rattus norvegicus [2]; [6]", "value": 10, "unit": "mg/kg-day"}]}
{"smiles": "CC=O", "note": "[Acetaldehyde]", "values": [{"measurement": "NOAEL", "setting": "Rattus norvegicus [3]; short-term, duration: 28 days, drinking water, Wistar, Food Consumption: decrease + Water Consumption: decrease + Blood Chemistry: BUN increase, T-Bil decrease, ALT decrease, ALP decrease + …", "value": 125, "unit": "mg/kg-day"}, {"measurement": "LOAEL", "setting": "Rattus norvegicus [2]; [7]", "value": 728, "unit": "mg/m3"}, {"measurement": "NOAEL", "setting": "Rattus norvegicus [2]; [7]", "value": 273, "unit": "mg/m3"}]}
{"smiles": "BrC(Br)Br", "note": "[Bromoform]", "values": [{"measurement": "LOAEL", "setting": "Rattus norvegicus [4]; chronic, duration: 103 weeks, gavage, M/F, Fischer 344, hepatic", "value": 100, "unit": "mg/kg-day"}, {"measurement": "NOAEL", "setting": "Rattus norvegicus [4]; subchronic, duration: 13 weeks, gavage, M/F, Fischer 344, hepatic", "value": 25, "unit": "mg/kg-day"}, {"measurement": "NOAEL", "setting": "Mus musculus; [8]", "value": 72, "unit": "mg/kg-day"}, {"measurement": "LOAEL", "setting": "Rattus norvegicus [2]; [9]", "value": 50, "unit": "mg/kg-day"}, {"measurement": "NOEL", "setting": "Rattus norvegicus [2]; [9]", "value": "25 mg/kg-day and 17.9 mg/kg-day"}]}
{"smiles": "[O-][Cl+][O-]", "note": "[Chlorite]", "values": [{"measurement": "NOAEL", "setting": "Rattus norvegicus [4]; developmental, duration: 16 weeks, drinking water, M/F, Sprague-Dawley, developmental", "value": 2.9, "unit": "mg/kg-day"}, {"measurement": "LOAEL", "setting": "Rattus norvegicus [2]; [10]", "value": 6, "unit": "mg/kg-day"}, {"measurement": "NOAEL", "setting": "Rattus norvegicus [2]; [10]", "value": 3, "unit": "mg/kg-day"}]}
{"smiles": "ClC(Br)Br", "note": "[Chlorodibromomethane]", "values": [{"measurement": "NOEL", "setting": "Rattus norvegicus [3]; subchronic, duration: 13 weeks, gavage, Fischer 344, Deaths + Histopathology: Liver-Vacuolar change Liver/bile duct- Hyperplasia Liver/centrilobular - necrosis Kidney-Toxic nephropathy Salivary…", "value": 30, "unit": "mg/kg-day"}, {"measurement": "LOAEL", "setting": "Rattus norvegicus [4]; chronic, duration: 2 years, gavage, M/F, Fischer 344, hepatic", "value": 40, "unit": "mg/kg-day"}, {"measurement": "LOAEL", "setting": "Mus musculus; [8]", "value": 37, "unit": "mg/kg-day"}, {"measurement": "LOAEL", "setting": "Rattus norvegicus [2]; [9]", "value": 60, "unit": "mg/kg-day"}, {"measurement": "NOEL", "setting": "Rattus norvegicus [2]; [9]", "value": "21.4 mg/kg-day and 30 mg/kg-day"}]}
{"smiles": "COc1nc(C)nc(NC(=O)NS(=O)(=O)c2ccccc2Cl)n1", "note": "[Chlorsulfuron]", "values": [{"measurement": "LEL", "setting": "Rattus norvegicus [2]; [11]", "value": 25, "unit": "mg/kg-day"}, {"measurement": "NOEL", "setting": "Rattus norvegicus [2]; [11]", "value": 5, "unit": "mg/kg-day"}]}
{"smiles": "C1CCCCC1", "note": "[Cyclohexane]", "values": [{"measurement": "LOAEL", "setting": "Rattus norvegicus [2]; [12]", "value": 24100, "unit": "mg/m3"}, {"measurement": "NOAEL", "setting": "Rattus norvegicus [2]; [12]", "value": 6890, "unit": "mg/m3"}]}
{"smiles": "CCOP(=O)(OCC)SCCSCC.CCOP(=S)(OCC)OCCSCC", "note": "[Demeton]", "values": [{"measurement": "LEL", "setting": "Rattus norvegicus [2]; chronic, duration: 2 years, oral, diet, M/F, cholinesterase inhibition, optic nerve degeneration", "value": 0.04, "unit": "mg/kg-day"}]}
{"smiles": "CC(C)C(Nc1ccc(C(F)(F)F)cc1Cl)C(=O)OC(C#N)c1cccc(Oc2ccccc2)c1", "note": "(centres undefined) [Fluvalinate]", "values": [{"measurement": "LEL", "setting": "Rattus norvegicus [2]; [13]", "value": 2.5, "unit": "mg/kg-day"}, {"measurement": "NOEL", "setting": "Rattus norvegicus [2]; [13]", "value": 1, "unit": "mg/kg-day"}]}
{"smiles": "COC(=O)C(C)Oc1ccc(Oc2ncc(C(F)(F)F)cc2Cl)cc1", "note": "(centres undefined) [Haloxyfop-methyl]", "values": [{"measurement": "LEL", "setting": "Rattus norvegicus [2]; [14]", "value": 0.05, "unit": "mg/kg-day"}, {"measurement": "NOEL", "setting": "Rattus norvegicus [2]; [14]", "value": 0.005, "unit": "mg/kg-day"}]}
{"smiles": "NN", "note": "[Hydrazine]", "values": [{"measurement": "LOAEL", "setting": "Mus musculus; chronic, duration: 6 months, inhalation, F, ICR, hepatic", "value": 0.262, "unit": "mg/m3"}]}
{"smiles": "O=C(O)C(F)(F)C(F)(F)C(F)(F)F", "note": "[Perfluorobutanoic acid]", "values": [{"measurement": "NOAEL", "setting": "Rattus norvegicus [4]; short-term, duration: 5 days, gavage, M/F, Sprague-Dawley, Immunotoxicological: No histological alterations + Neurological: No histological alterations + Reproductive: No histological alterations", "value": 184, "unit": "mg/kg-day"}, {"measurement": "NOAEL", "setting": "Rattus norvegicus [4]; short-term, duration: 14 days, diet, M, Sprague-Dawley, Hepatic: Biochemical and ultrastructural evidence of peroxisome proliferation", "value": 20, "unit": "mg/kg-day"}, {"measurement": "NOAEL", "setting": "Rattus norvegicus [4]; short-term, duration: 28 days, M/F, Sprague-Dawley, Hepatic: Increased absolute and relative liver weight and decreased serum cholesterol in males at ?30 mg/kg/day / hepatocellular …", "value": 150, "unit": "mg/kg-day"}, {"measurement": "LOAEL", "setting": "Rattus norvegicus [4]; [15]", "value": 30, "unit": "mg/kg-day"}, {"measurement": "NOAEL", "setting": "Rattus norvegicus [4]; [15]", "value": 6, "unit": "mg/kg-day"}, {"measurement": "LOAEL", "setting": "Rattus norvegicus [4]; [16]", "value": 150, "unit": "mg/kg-day"}, {"measurement": "NOAEL", "setting": "Rattus norvegicus [4]; [16]", "value": 30, "unit": "mg/kg-day"}, {"measurement": "NOAEL", "setting": "Rattus norvegicus [4]; subchronic, duration: 90 days, M/F, Sprague-Dawley, Hematological: Reduced erythrocyte counts (3.8%), hemoglobin (5.7%), and hematocrit (4.5%)", "value": 6, "unit": "mg/kg-day"}, {"measurement": "NOAEL", "setting": "Rattus norvegicus [4]; subchronic, duration: 90 days, M/F, Sprague-Dawley, Hepatic: Diffuse panlobular hepatocyte hypertrophy at 30 mg/kg/day in males + Immunotoxicological: No histological alterations + …", "value": 30, "unit": "mg/kg-day"}, {"measurement": "NOAEL", "setting": "Rattus norvegicus [4]; subchronic, duration: 90 days, M, Sprague-Dawley, Endocrine: Hypertrophy/hyperplasia of follicular epithelium of the thyroid gland", "value": 6, "unit": "mg/kg-day"}, {"measurement": "LOAEL", "setting": "Rattus norvegicus [4]; subchronic, duration: 90 days, M, Sprague-Dawley, Endocrine: Hypertrophy/hyperplasia of follicular epithelium of the thyroid gland + Hematological: Reduced erythrocyte counts (3.8%), …", "value": 30, "unit": "mg/kg-day"}, {"measurement": "LOAEL", "setting": "Mus musculus; developmental, duration: 18 days, oral, gavage, CD1, Developmental: Eye opening delayed approximately 1 day", "value": 35, "unit": "mg/kg-day"}, {"measurement": "NOAEL", "setting": "Mus musculus; reproduction developmental, duration: 18 days, oral, gavage, CD1, Hepatic: Significant increase in absolute and relative liver weight at ?[…]", "value": 350, "unit": "mg/kg-day"}, {"measurement": "NOAEL", "setting": "Mus musculus; short-term, duration: 10 days, oral, diet, M, Hepatic: 63% increase in absolute liver weight", "value": 78, "unit": "mg/kg-day"}, {"measurement": "NOAEL", "setting": "Rattus norvegicus [2]; subchronic, duration: 90 days, oral, gavage, M, Sprague-Dawley, Increased hepatocellular hypertrophy (Liver), Decreased total T4 (Thyroid)", "value": 6, "unit": "mg/kg-day"}]}
